Results: patent publication US20050227306A1, “Fluorescence polarization assay to detect protease cleavage” (priority 2003, published 2005)

How the values were obtained:
[1] = biological target: T1, TEV protease (Tobacco etch virus, UniProt P04517); experiment: Effect of additives on TEV protease cleavage measured by fluorescence polarization; format: biochemical; settings: At3g16990 in pVP15 substrate, 0.5 μM TEV protease, pH 8.0, ca. 22° C.; increasing additive concentrations
T1 construct: TEV Protease, 0.5 μM
Source text: The following series of Examples exemplify the efficacy of using the disclosed invention in measuring protease cleavage in the presence of various potentially interfering compounds. Briefly, each reaction comprised mixing three components: 1) a mixture of labeled and unlabeled protease substrates; 2) TEV protease; and 3) the potentially interfering additive. The results are presented graphically in FIGS. 3-14 The reaction buffer contained the following components (final concentrations noted):
Each stated additive as shown in FIGS. 3-14 was added at the stated concentrations. The TEV protease was added to each reaction last, just prior to placing the reactions into the photometer. The reactions were followed in real-time, at ambient temperature (ca. 22° C.). Fluorescence anisotropy was measured at the time points noted in FIGS. 3-14.
The following figures present the fluorescence data for each of the stated additives: FIG. 3: urea (M), FIG. 4: sucrose concentration (M), FIG. 5: sodium dodecylsulfate (SDS) (wt/vol %), FIG. 6: sodium chloride (NaCl) (M), FIG. 7: guanidium hydrochloride (M), FIG. 8: glycine concentration (wt/vol %), FIG. 9: glycerol concentration (vol/vol %), FIG. 10: ethanol concentration (vol/vol %), FIG. 11: ethylene glycol concentration (vol/vol %), FIG. 12: dimethylsulfoxide (DMSO) (vol/vol %), FIG. 13: calcium chloride (CaCl2) (M), and FIG. 14: arginine (wt/vol %).
Fluorescence anisotropy was measured using a Tecan 384 Ultra plate spectrofluorimeter. Excitation was at 485 nm (25 nm bandpass) and emission was measured at 525 nm (20 nm bandpass). Anisotropy measurements were made at 2 to 5 min intervals for 5 hours. The observed anisotropy is the sum of the anisotropy of the individual fluorescent components, or robs=Σfiri, where robs, is the observed anisotropy, fi is the fractional fluorescence intensity of component i, and ri is the anisotropy of component i. See J. Lakowicz, “Principles of fluorescence spectroscopy,” Kluwer Academic/Plenum Publishers, New York, 1999. For a two-state system with the fluorophore attached to either the intact fusion protein or to the small peptide produced by proteolysis, the fractional extent of reaction is given by ξ=(rf−robs)/(rf−rc), where rf is the fluorescence anisotropy of the intact fusion protein and rc is the fluorescence anisotropy of small peptide. This treatment assumes that there is no difference in the fluorescence intensity of the fluorophore attached to either the fusion protein or the small peptide, and this is justified by the observation that there was no significant change in total fluorescence intensity as the reactions proceeded.

[2] = test system: substrate 23-F (His6-tetraCys-X-MBP); experiment: Fluorescence anisotropy proteolysis assay with substrate 23-F; format: biochemical, E. coli; settings: initial rate by fluorescence anisotropy, normalized to the rate of the protease with its preferred cognate substrate
Source text: (§1) All protease substrates were expressed in E. coli Rosetta pLacI Rare to provide compensation for rare codons (see Kirienko et al. (2004) Biochemistry (Mosc) 69:527-535; available commercially from Novagen, a wholly-owned subsidiary of EMD Biosciences, Inc., Madison, Wis.). The expression was done in 2-L PET bottles (Millard et al. (2003) Protein Expr. Purif. 29:311-320). The protein purification followed typical IMAC purification procedures (see Sambrook & Russell, supra) including elution in an imidazole gradient from 0-350 mM. After SDS-PAGE analysis, appropriate fractions were pooled and desalted into 20 mM phosphate, pH 7.5, containing 100 mM NaCl and 0.3 mM TCEP. […]
(§2) Protease assays were conducted using a combination of 20 μM unlabeled and 40 nM labeled protease substrates unless noted otherwise. […] This decreased the amount of time between mixing and measurement to less than three minutes and allowed the fluorescence anisotropy measured at the first time point to closely approximate the anisotropy of the intact fusion protein. […]
(§3) Fluorescence anisotropy was measured using a Tecan 384 Ultra plate spectrofluorimeter. Excitation was at 485 nm (25 nm bandpass) and emission was measured at 525 nm (20 nm bandpass). […] See J. Lakowicz, “Principles of fluorescence spectroscopy,” Kluwer Academic/Plenum Publishers, New York, 1999. […]

[3] = test system: substrate 24-F (His6-tetraCys-X-MBP); experiment: Fluorescence anisotropy proteolysis assay with substrate 24-F; format: biochemical, E. coli; settings: initial rate by fluorescence anisotropy, normalized to the rate of the protease with its preferred cognate substrate
Source text: as §1, §2, §3

[4] = test system: substrate 25-F (His6-tetraCys-X-MBP); experiment: Fluorescence anisotropy proteolysis assay with substrate 25-F; format: biochemical, E. coli; settings: for Relative rate of reaction, substrate 25F: initial rate by fluorescence anisotropy, normalized to the rate of the protease with its preferred cognate substrate; for Specific reaction rate: substrate 25-F
Source text: (§4) All protease substrates were expressed in E. coli Rosetta pLacI Rare to provide compensation for rare codons (see Kirienko et al. (2004) Biochemistry (Mosc) 69:527-535; available commercially from Novagen, a wholly-owned subsidiary of EMD Biosciences, Inc., Madison, Wis.). The expression was done in 2-L PET bottles (Millard et al. (2003) Protein Expr. Purif. 29:311-320). The protein purification followed typical IMAC purification procedures (see Sambrook & Russell, supra) including elution in an imidazole gradient from 0-350 mM. After SDS-PAGE analysis, appropriate fractions were pooled and desalted into 20 mM phosphate, pH 7.5, containing 100 mM NaCl and 0.3 mM TCEP. Proteins were concentrated to a final concentration of 300-600 μM using centrifugal concentrators. Glycerol (50% v/v) was added to all protease substrates except 26-F and frozen at −20° C. The Arabidopsis targets At3g03410 (expressed from pVP14) and At3g16990 (expressed from pVP15) were flash frozen as drops in liquid nitrogen and stored at −80° C.
(§5) A 20% molar excess of the tetraCys reagent was incubated overnight (˜12 h) with protein (10-100 μg) at room temperature in 20 mM phosphate, pH 7.5, containing 100 mM NaCl, 0.3 mM TCEP, and 1 mM β-mercaptoethanol. After the labeling reaction, unincorporated fluorophore was removed by two successive cycles of 10-fold dilution and concentration using centrifugal concentrators.
as §2, with “otherwise. TEV protease reactions were conducted in 20 mM Tris-HCl, pH 8.0, containing 100 mM NaCl, 0.3 mM TCEP, 1 mM β-mercaptoethanol, and 5 mM EDTA.” for “otherwise.”
Fluorescence anisotropy was measured using a Tecan 384 Ultra plate spectrofluorimeter. Excitation was at 485 nm (25 nm bandpass) and emission was measured at 525 nm (20 nm bandpass). […] The observed anisotropy is the sum of the anisotropy of the individual fluorescent components, or robs=Σfiri, where robs, is the observed anisotropy, fi is the fractional fluorescence intensity of component i, and ri is the anisotropy of component i. See J. Lakowicz, “Principles of fluorescence spectroscopy,” Kluwer Academic/Plenum Publishers, New York, 1999. For a two-state system with the fluorophore attached to either the intact fusion protein or to the small peptide produced by proteolysis, the fractional extent of reaction is given by ξ=(rf−robs)/(rf−rc), where rf is the fluorescence anisotropy of the intact fusion protein and rc is the fluorescence anisotropy of small peptide. […]

[5] = test system: substrate 21-F (His6-tetraCys-X-MBP); experiment: Fluorescence anisotropy proteolysis assay with substrate 21-F; format: biochemical, E. coli; settings: initial rate by fluorescence anisotropy, normalized to the rate of the protease with its preferred cognate substrate
Source text: as §1, §2, §3

[6] = test system: substrate 22-F (His6-tetraCys-X-MBP); experiment: Fluorescence anisotropy proteolysis assay with substrate 22-F; format: biochemical, E. coli; settings: for Relative rate of reaction, substrate 22F: initial rate by fluorescence anisotropy, normalized to the rate of the protease with its preferred cognate substrate
Source text: as §4, §5
Protease assays were conducted using a combination of 20 μM unlabeled and 40 nM labeled protease substrates unless noted otherwise. TEV protease reactions were conducted in 20 mM Tris-HCl, pH 8.0, containing 100 mM NaCl, 0.3 mM TCEP, 1 mM β-mercaptoethanol, and 5 mM EDTA. Reactions with thrombin, enterokinase, and Factor Xa were performed in the buffer supplied by the manufacturer. Trypsin reactions were carried out in the buffer supplied for thrombin. Assays were carried out in black Cliniplate 384 well plates in a 40 μL reaction volume or in black Greiner 384 well plates using an 80 μL reaction volume. […] This decreased the amount of time between mixing and measurement to less than three minutes and allowed the fluorescence anisotropy measured at the first time point to closely approximate the anisotropy of the intact fusion protein. […]
Fluorescence anisotropy was measured using a Tecan 384 Ultra plate spectrofluorimeter. Excitation was at 485 nm (25 nm bandpass) and emission was measured at 525 nm (20 nm bandpass). […] The observed anisotropy is the sum of the anisotropy of the individual fluorescent components, or robs=Σfiri, where robs, is the observed anisotropy, fi is the fractional fluorescence intensity of component i, and ri is the anisotropy of component i. See J. Lakowicz, “Principles of fluorescence spectroscopy,” Kluwer Academic/Plenum Publishers, New York, 1999. For a two-state system with the fluorophore attached to either the intact fusion protein or to the small peptide produced by proteolysis, the fractional extent of reaction is given by ξ=(rf−robs)/(rf−rc), where rf is the fluorescence anisotropy of the intact fusion protein and rc is the fluorescence anisotropy of small peptide. This treatment assumes that there is no difference in the fluorescence intensity of the fluorophore attached to either the fusion protein or the small peptide, and this is justified by the observation that there was no significant change in total fluorescence intensity as the reactions proceeded. […]

[7] = test system: substrate 26-F (His6-tetraCys-X-MBP); experiment: Fluorescence anisotropy proteolysis assay with substrate 26-F; format: biochemical, E. coli; settings: initial rate by fluorescence anisotropy, normalized to the rate of the protease with its preferred cognate substrate
Source text: as §1, §2, §3

[8] = reactions with cognate His6-tetraCys-X-MBP substrates

T1 sequence (P04517 2038-2279): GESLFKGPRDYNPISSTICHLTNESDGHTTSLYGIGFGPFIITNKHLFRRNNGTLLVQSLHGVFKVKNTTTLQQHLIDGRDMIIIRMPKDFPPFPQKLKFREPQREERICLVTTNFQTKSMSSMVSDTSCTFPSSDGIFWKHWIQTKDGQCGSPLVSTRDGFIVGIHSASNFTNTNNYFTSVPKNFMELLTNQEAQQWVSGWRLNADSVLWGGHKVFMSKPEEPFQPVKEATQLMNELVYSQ

OCC(O)CO [glycerol]
Effect of additive on fractional completion of the TEV protease cleavage reaction [1]: little or no effect

Trypsin: protease tested on tetraCys-labeled His6-tetraCys-X-MBP substrates
Relative rate of reaction, substrate 23F [2]: 0.1 | Relative rate of reaction, substrate 24F [3]: 0.4 | Relative rate of reaction, substrate 25F [4]: 0.5 | Relative rate of reaction, substrate 21F [5]: 0.3 | Relative rate of reaction, substrate 22F [6]: 1 | Turnover number, fold greater than for TEV protease [6, 8]: 10 fold | Turnover number, fold greater than that observed for thrombin [6, 8]: 3 fold | Specific reaction rate ([6]; substrate 22-F, slope of initial rate versus protease concentration, errors two standard deviations): 760±60 moles substrate proteolyzed per mole of protease per hour

C[S+](C)[O-] [DMSO, dimethylsulfoxide]
Effect of additive on fractional completion of the TEV protease cleavage reaction [1]: little or no effect

[Ca+2].[Cl-].[Cl-] [CaCl2, calcium chloride]
Effect of additive on fractional completion of the TEV protease cleavage reaction [1]: little or no effect

N=C(N)NCCC[C@H](N)C(=O)O [arginine]
Effect of additive on fractional completion of the TEV protease cleavage reaction [1]: considerable inhibition

CCCCCCCCCCCCOS(=O)(=O)[O-].[Na+] [SDS, sodium dodecylsulfate]
Effect of additive on fractional completion of the TEV protease cleavage reaction [1]: considerable inhibition

CCO [ethanol]
Effect of additive on fractional completion of the TEV protease cleavage reaction [1]: considerable inhibition

OCCO [ethylene glycol]
Effect of additive on fractional completion of the TEV protease cleavage reaction [1]: considerable inhibition

OC[C@H]1O[C@@](CO)(O[C@H]2O[C@H](CO)[C@@H](O)[C@H](O)[C@H]2O)[C@@H](O)[C@@H]1O [sucrose]
Effect of additive on fractional completion of the TEV protease cleavage reaction [1]: little or no effect

NCC(=O)O [glycine]
Effect of additive on fractional completion of the TEV protease cleavage reaction [1]: little or no effect

Thrombin
Relative rate of reaction, substrate 23F [2]: −0.02 | Relative rate of reaction, substrate 24F [3]: 0.0 | Relative rate of reaction, substrate 25F [4]: 1 | Specific reaction rate ([4]; slope of initial rate versus protease concentration, errors two standard deviations): 240±20 moles substrate proteolyzed per mole of protease per hour | Specific reaction rate ([4]; thrombin units adjusted for equivalence with enterokinase and Factor Xa unit definition): 0.20±0.02 nmole substrate proteolyzed per unit enzyme per hour | Relative rate of reaction, substrate 21F [5]: 0.0 | Relative rate of reaction, substrate 22F [6]: 0.4 | Relative rate of reaction, substrate 26F [7]: 0.0

[Cl-].[Na+] [NaCl, sodium chloride]
Effect of additive on fractional completion of the TEV protease cleavage reaction [1]: little or no effect

Cl.N=C(N)N [guanidium hydrochloride]
Effect of additive on fractional completion of the TEV protease cleavage reaction [1]: considerable inhibition

NC(N)=O [urea]
Effect of additive on fractional completion of the TEV protease cleavage reaction [1]: considerable inhibition
